In one series the test system is WSUDLCL2. The experiment in a line: Antiproliferative activity against human WSUDLCL2 cells harboring EZH2 Y641F mutant. The series is classed as functional, cell-based.
Series [1] has as its system Pfeiffer. The experiment in a line: Antiproliferative activity against human Pfeiffer cells harboring EZH2 A677G mutant. The series is classed as functional, cell-based.
Series [2] deals with KARPAS-422. In words: Antiproliferative activity against human KARPAS-422 cells harboring EZH2 Y641N mutant. The series is classed as functional, cell-based.
Series [3] is described as follows: Half life in mouse at 10 mg/kg, po. The format is ADME, organism-based. To be noted: in vivo.
A short description of series [4]: Half life in mouse at 2 mg/kg, iv. The format is ADME, organism-based. To be noted: in vivo.
Series [5] in a line: Cmax in mouse at 10 mg/kg, po. The series is classed as ADME, organism-based. To be noted: in vivo.
Series [6] is described as follows: Cmax in mouse at 2 mg/kg, iv. The format is ADME, organism-based. To be noted: in vivo.
Series [7] is described as follows: AUC (0 to t) in mouse at 10 mg/kg, po. The format is ADME, organism-based. To be noted: in vivo.
Series [8] can be described thus: AUC (0 to t) in mouse at 2 mg/kg, iv. The series is classed as ADME, organism-based. To be noted: in vivo.
A short description of series [9]: AUC (0 to infinity) in mouse at 10 mg/kg, po. The format is ADME, organism-based. To be noted: in vivo.
The nature of series [10]: AUC (0 to infinity) in mouse at 2 mg/kg, iv. The format is ADME, organism-based. To be noted: in vivo.
The nature of series [11]: Volume of distribution at steady state in mouse at 2 mg/kg, iv. To be noted: in vivo, read-out: Vdss. The series is classed as ADME, organism-based.
Series [12] is described as follows: Clearance in mouse at 2 mg/kg, iv. The series is classed as ADME, organism-based. To be noted: in vivo.
The nature of series [13]: Oral bioavailability in mouse at 10 mg/kg. The series is classed as ADME, organism-based. To be noted: in vivo.
A short description of series [14]: Metabolic stability in mouse liver microsomes assessed as half life. The format is ADME, Microsome. On the technique in general: Liver microsomes are vesicles of endoplasmic reticulum, rich in cytochrome P450 enzymes.
Series [15] is described as follows: Metabolic stability in mouse liver microsomes assessed as intrinsic clearance in hepatocytes measured per million cells. The series is classed as ADME, Microsome.
A short description of series [16]: Metabolic stability in mouse liver microsomes assessed as intrinsic clearance in liver. To be noted: read-out: CLH. The format is ADME, Microsome.
Series [17] is described as follows: Metabolic stability in rat liver microsomes assessed as half life. The series is classed as ADME, Microsome.
The nature of series [18]: Metabolic stability in rat liver microsomes assessed as intrinsic clearance in hepatocytes measured per million cells. The format is ADME, Microsome.
Series [19] can be described thus: Metabolic stability in rat liver microsomes assessed as intrinsic clearance in liver. The series is classed as ADME, Microsome. To be noted: read-out: CLH.
A short description of series [20]: Metabolic stability in dog liver microsomes assessed as half life. The format is ADME, Canis lupus familiaris, Microsome.
Series [21] can be described thus: Metabolic stability in dog liver microsomes assessed as intrinsic clearance in hepatocytes measured per million cells. The format is ADME, Canis lupus familiaris, Microsome.
Series [22] can be described thus: Metabolic stability in dog liver microsomes assessed as intrinsic clearance in liver. The series is classed as ADME, Canis lupus familiaris, Microsome. To be noted: read-out: CLH.
Series [23] in a line: Metabolic stability in monkey liver microsomes assessed as half life. The series is classed as ADME, Macaca mulatta, Microsome. To be noted: rhesus monkey.
Series [24] can be described thus: Metabolic stability in monkey liver microsomes assessed as intrinsic clearance in hepatocytes measured per million cells. The format is ADME, Macaca mulatta, Microsome. To be noted: rhesus monkey.
Series [25] is described as follows: Metabolic stability in monkey liver microsomes assessed as intrinsic clearance in liver. The series is classed as ADME, Macaca mulatta, Microsome. To be noted: rhesus monkey, read-out: CLH.
The nature of series [26]: Metabolic stability in human liver microsomes assessed as half life. The format is ADME, Microsome.
A short description of series [27]: Metabolic stability in human liver microsomes assessed as intrinsic clearance in hepatocytes measured per million cells. The format is ADME, Microsome.
Series [28] in a line: Metabolic stability in human liver microsomes assessed as intrinsic clearance in liver. The series is classed as ADME, Microsome. To be noted: read-out: CLH.
Series [29] in a line: Toxicity in mouse xenografted with human Pfeiffer cells harboring EZH2 A677G mutant assessed as body weight loss at 25 to 100 mg/kg, po qd for 28 days. The format is organism-based. To be noted: in vivo, 672 h, dose 25-100 mg/kg, time 28 day. Background: Xenograft models place foreign cells or tissue in a host animal.
A short description of series [30]: Toxicity in mouse xenografted with human KARPAS-422 cells harboring EZH2 Y641N mutant assessed as body weight loss at 50 to 200 mg/kg, po bid for 28 days. To be noted: in vivo, 672 h, dose 50-200 mg/kg, time 28 day. The format is organism-based.
Series [31] has as its system Pfeiffer. In words: Antitumor activity against human Pfeiffer cells harboring EZH2 A677G mutant xenografted in mouse assessed as reduction in tumor volume at 25 to 100 mg/kg, po qd for 28 days. The series is classed as functional. To be noted: dose 25-100 mg/kg, time 28 day. Set-up: scale not given: the % may be the effect or the level left.
Series [32] has as its system Pfeiffer. In words: Antitumor activity against human Pfeiffer cells harboring EZH2 A677G mutant xenografted in mouse at 25 mg/kg, po qd for 28 days relative to control. The series is classed as functional. To be noted: 672 h, time 28 day, read-out: TGI.
Series [33] has as its system Pfeiffer. In words: Antitumor activity against human Pfeiffer cells harboring EZH2 A677G mutant xenografted in mouse at 50 mg/kg, po qd for 28 days relative to control. The format is functional. To be noted: 672 h, time 28 day, read-out: TGI.
Series [34] concerns Pfeiffer. In words: Antitumor activity against human Pfeiffer cells harboring EZH2 A677G mutant xenografted in mouse at 100 mg/kg, po qd for 28 days relative to control. The format is functional. To be noted: 672 h, time 28 day, read-out: TGI.
For series [35], the system named is KARPAS-422. The experiment in a line: Antitumor activity against human KARPAS-422 cells harboring EZH2 Y641N mutant xenografted in mouse assessed as reduction tumor volume at 50 to 200 mg/kg, po bid for 28 days relative to control. The format is functional. Also noted: scale not given: the % may be the effect or the level left. To be noted: dose 50-200 mg/kg, time 28 day.

For series [36], the system named is KARPAS-422. The experiment in a line: Antitumor activity against human KARPAS-422 cells harboring EZH2 Y641N mutant xenografted in mouse at 50 mg/kg, po bid for 28 days relative to control. To be noted: KARPAS-422, 672 h, time 28 day, read-out: TGI. The series is classed as functional.
The subject of series [37] is KARPAS-422. The experiment in a line: Antitumor activity against human KARPAS-422 cells harboring EZH2 Y641N mutant xenografted in mouse at 100 mg/kg, po bid for 28 days relative to control. The series is classed as functional. To be noted: KARPAS-422, 672 h, time 28 day, read-out: TGI.
The test system of series [38] is KARPAS-422. The experiment in a line: Antitumor activity against human KARPAS-422 cells harboring EZH2 Y641N mutant xenografted in mouse at 200 mg/kg, po bid for 28 days relative to control. The series is classed as functional. To be noted: KARPAS-422, 672 h, time 28 day, read-out: TGI.
Series [39] can be described thus: Drug concentration in human KARPAS-422 cells harboring EZH2 Y641N mutant xenografted in mouse at 100 mg/kg, po measured after 4 hrs. The format is ADME, organism-based. To be noted: KARPAS-422 xenograft tumour, read-out: Ct.
Series [40] can be described thus: Drug concentration in human KARPAS-422 cells harboring EZH2 Y641N mutant xenografted in mouse at 100 mg/kg, po measured after 8 hrs. The series is classed as ADME, organism-based. To be noted: KARPAS-422 xenograft tumour, read-out: Ct.

What is called IC50 is the concentration at which inhibition is half-maximal. In general, half-life refers to the time in which the quantity being followed falls by half. A word on the Cmax: it is the maximum level reached in the sampled fluid or tissue. As usually defined, the AUC(0-t) is the area under the concentration-time curve up to a stated or last time point. Usually AUC(0-inf) stands for total exposure, with the tail of the curve extrapolated. The term clearance denotes the volume of plasma or blood freed of the substance per unit of time. As a reminder, the bioavailability is the share of a dose that reaches the circulation, judged against a reference dose that is usually intravenous. Take `CCN(c1cc(-c2ccc3c(c2)CCC3N2CCOCC2)cc(C(=O)NCc2c(C)cc(C)[nH]c2=O)c1C)C1CCOCC1` (stereo not drawn): the half-maximal inhibitory concentration (IC50) was 2.36 nM in the series on WSUDLCL2, 1.73 nM with Pfeiffer [1] and 1.82 nM in the series with KARPAS-422 [2]. The half-life in [3] was 40.2 min; in [4], 25.2 min; in series [14], 17.5 min; in [17], 13.9 min; in series [20], 34.5 min; in series [23], 18.3 min. For the same molecule, the half-life in series [26] was 80.3 min. Besides, the highest concentration (Cmax) in [5] is 1700 ng/mL; in [6], 2400 ng/mL. The results for the exposure AUC(0-t) in series [7] and in series [8] were 2960 ng·h/mL and 1610 ng·h/mL, respectively. Also, the AUC(0-inf) came to 2970 ng·h/mL in series [9] and 1610 ng·h/mL in series [10]. In [11], the Vd came out at 0.65 L/kg. Moreover, the clearance in [12] is 20.7 mL/min/kg. In [13], this molecule displayed a bioavailability of 36.9%. For the same molecule, the CLH in [15] is 79.3 µL/min; in series [18] it was 99.9 µL/min; in series [21], 40.2 µL/min; in [24], 75.6 µL/min; in series [27] it was 17.3 µL/min. Also, the CLint scaled in series [16] turned out to be 942 mL/min/kg; in series [19], 468 mL/min/kg; in series [22], 276 mL/min/kg; in series [25], 272 mL/min/kg; in series [28], 48 mL/min/kg. The Activity entry is recorded as “Non-Toxic” in series [29], “Non-Toxic” in series [30], 53.1% in the series on Pfeiffer [31] and 16% in the series with KARPAS-422 [35]. Moreover, the inhibition in vivo at 25 mg/kg with Pfeiffer [32] stood at 53.1%. The inhibition in vivo at 50 mg/kg in the series with Pfeiffer [33] is 68.9%; in the series with KARPAS-422 [36], 16%. For the same molecule, the figures for the inhibition in vivo at 100 mg/kg in the series with Pfeiffer [34] and with KARPAS-422 [37] were 100% and 52.5%, respectively. Besides, the inhibition in vivo at 200 mg/kg in the series with KARPAS-422 [38] turned out to be 98%. In series [39], the concentration at 4 h was found to be 8580 ng/mL. Moreover, the concentration at 8 h in [40] is 9520 ng/mL.

Consider `CCN(c1cc(-c2ccc3c(c2)NC(=O)C32CCOCC2)cc(C(=O)NCc2c(C)cc(C)[nH]c2=O)c1C)C1CCOCC1`, for which the 50% inhibitory concentration (IC50) in the series with WSUDLCL2 was 1.34 nM; with Pfeiffer [1], 0.56 nM; in the series with KARPAS-422 [2], 0.98 nM. Besides, the figures for the half-life in [3] and in series [4] were 37.2 min and 25.2 min, respectively. The results for the Cmax in series [5] and in series [6] were 152 ng/mL and 912 ng/mL, respectively. In addition, the figures for the AUC(0-t) in series [7] and in [8] were 122 ng·h/mL and 331 ng·h/mL, respectively. The AUC(0-inf) in [9] is 125 ng·h/mL; in [10], 340 ng·h/mL. Also, the Vd in series [11] worked out at 2.61 L/kg. Moreover, the clearance in series [12] turned out to be 99.7 mL/min/kg. Moreover, the bioavailability in [13] came out at 7.4%.

On to `CCN(c1cc(-c2ccc3c(c2)NC(=O)C32CCN(C)CC2)cc(C(=O)NCc2c(C)cc(C)[nH]c2=O)c1C)C1CCOCC1`, for which the IC50 in the series with WSUDLCL2 was found to be 3.58 nM; in the series with Pfeiffer [1] it was 1.98 nM; in the series on KARPAS-422 [2], 2.19 nM. In [4], this molecule gave a half-life of 37.2 min. For the same molecule, the peak concentration (Cmax) in series [5] stood at 13.5 ng/mL; in [6] it was 3680 ng/mL. Further, the AUC(0-t) in series [7] came to 3.4 ng·h/mL; in series [8] it was 1230 ng·h/mL. Further, the AUC(0-inf) in [9] stood at 3.4 ng·h/mL; in series [10], 1230 ng·h/mL. Besides, the Vd in series [11] came out at 0.688 L/kg. The clearance in [12] was 27.9 mL/min/kg. In addition, the bioavailability in [13] came out at 0.06%.
